Where two headings read alike, the source gives them in different places.
Legend:
[1] = molecular target: T1, GPR73 (prokineticin 1 receptor) (Homo sapiens, UniProt Q8TCW9); test: PK1 functional assay: Ca2+ mobilization on the FLIPR; type: cell-based; details: for IC50: HEK 293 GPR73 cells, read-out: Ca^2+ Mobilization IC50
T1 construct: expressed in transfected cells; host or cells: HEK 293
Method in brief: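 HEK293 cells expressing the receptor, loaded with Calcium Plus dye 30 min at 37 °C, then compound preincubated 4 min 15 s before PK1 ligand at its predetermined EC50. FLIPR fluorescence, baseline-subtracted; % inhibition versus max signal, IC50 by curve fitting.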

PK1 receptor = molecular target: T2, PK1 receptor (Rattus norvegicus, UniProt Q8R416); test: Suppression of PK1 evoked increase in Isc in isolated rat ileum mucosa; details: test compound 1 µM, 15 min; PK1 10 and 100 nM cumulative
T2 construct: The PK1 evoked increase in Isc requires the presence of endogenous PK1 receptors; from tissue; host or cells: rat ileum mucosa (Ussing-type chambers)
Description: Methodology. The basic methodology for Ussing-type ion flux chambers used in these studies was the same as that described in detail above with the following modifications to the experimental protocol. […] The responses to two sequential EFS were used to gauge tissue viability and comparability of the responses of individual tissues from each rat and between rats. Tissue conductance was measured at periodic intervals as changes in the amplitudes of brief short-circuit current responses evoked by application of 1 mV amplitude bi-polar pulses from a pulse generator using Ohm's Law. Three to four tissues from each rat were studied. The tissues from a given animal were grouped and assigned accordingly: one control tissue which received only vehicle followed by two consecutive doses of PK-1 ligand added in a cumulative fashion to the basolateral surface of the tissue; the remaining two to three tissues from the same animal were assigned to be exposed to a given PK-1 receptor antagonist (e.g., 3-4 tissues from 1 rat: Control, Antagonist1, Antagonist2, and/or Antagonist3). Test compound was added to the basolateral tissue side reservoir at a final concentration of 1 µM and allowed a 15 minute incubation period prior to challenge with the PK1 peptide. […]

rat ileum mucosa = test: Carbachol-evoked Isc in rat ileum mucosa (selectivity test); details: carbachol at two concentrations, ascending cumulative, serosal side
[2] = system: isolated rat ileum mucosa

T1 sequence (Q8TCW9 whole entry, species assumed): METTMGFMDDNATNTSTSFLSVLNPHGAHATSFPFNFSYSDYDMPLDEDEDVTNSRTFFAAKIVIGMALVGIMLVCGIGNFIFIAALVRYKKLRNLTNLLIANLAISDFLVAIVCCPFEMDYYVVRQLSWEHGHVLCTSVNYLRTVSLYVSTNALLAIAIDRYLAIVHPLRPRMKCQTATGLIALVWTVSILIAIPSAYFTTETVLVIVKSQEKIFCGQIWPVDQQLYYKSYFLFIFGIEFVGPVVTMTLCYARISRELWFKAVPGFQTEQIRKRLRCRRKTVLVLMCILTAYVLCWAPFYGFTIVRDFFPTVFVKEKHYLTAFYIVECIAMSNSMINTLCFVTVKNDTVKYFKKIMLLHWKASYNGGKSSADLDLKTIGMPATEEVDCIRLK
T2 sequence (Q8R416 whole entry): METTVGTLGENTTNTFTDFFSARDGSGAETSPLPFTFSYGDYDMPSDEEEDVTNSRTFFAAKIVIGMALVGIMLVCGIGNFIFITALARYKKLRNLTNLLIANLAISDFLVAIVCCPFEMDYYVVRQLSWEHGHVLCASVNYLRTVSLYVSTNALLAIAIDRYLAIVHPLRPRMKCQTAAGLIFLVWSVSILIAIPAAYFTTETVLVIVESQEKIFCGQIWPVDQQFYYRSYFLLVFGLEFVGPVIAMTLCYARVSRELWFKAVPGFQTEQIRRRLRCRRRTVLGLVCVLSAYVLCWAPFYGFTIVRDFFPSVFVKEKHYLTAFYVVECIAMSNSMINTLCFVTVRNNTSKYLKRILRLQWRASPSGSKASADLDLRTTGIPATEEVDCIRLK

COc1ccc(Cn2c(NCCn3c(N)nc4ccc(C)cc43)nc(=O)n(Cc3ccc(F)cc3)c2=O)cc1 [Cpd 3, 6-[2-(2-Amino-6-methyl-benzoimidazol-1-yl)-ethylamino]-3-(4-fluoro-benzyl)-1-(4-methoxy-benzyl)-1H-[1,3,5]triazine-2,4-dione]
Ca^2+ Mobilization % Inh @10 µM ([1]; 10 µM, (further determination)): 94% | Ca^2+ Mobilization % Inh @10 µM ([1]; 10 µM): 96% | IC50 ([1]; IC50 (further determination)): 29 nM | IC50 [1]: 8 nM | suppression of the PK1 evoked increase in Isc (PK1 receptor): suppresses | suppression of the pro-secretory effect of carbachol (rat ileum mucosa): failed to suppress | suppression of Cholera toxin induced increase in Isc (figure legends) [2]: suppresses | suppression of the sustained increase in baseline Isc evoked by Cholera toxin [2]: 50-60% | effect versus increased baseline Isc evoked by Vibrio cholera toxin ([2]; 1 μM): no significant effect

Source: patent publication US8324380B2, “Amino-heteroaryl-containing prokineticin 1 receptor antagonists” (Janssen Pharmaceutica NV, priority 2007, dated 2012)
